Results from patent publication US4210663A, “Halogen substituted benzopyran- and benzothiopyran-4-carboxylic acids” (Pfizer Inc., priority 1978, dated 1980).

Target: T1, aldose reductase (Bos taurus, UniProt P16116)
T1 construct: partially purified aldose reductase enzyme obtained from calf lens; from tissue; host or cells: calf lens
Assay: inhibition of aldose reductase enzyme activity (procedure of U.S. Pat. No. 3,821,383, based on Hayman et al.)
Format: biochemical
Conditions: partially purified aldose reductase from calf lens, / = results of duplicate tests; for inhibition at 100 µM: 10^-4 M
Excerpt: Pat. No. 3,821,383 and based on the procedure of Hayman et. al., Journal of Biological Chemistry, 240, 877 (1965). The substrate employed was partially purified aldose reductase enzyme obtained from calf lens. The results obtained with each compound at a concentration of 10^-4 M are expressed as percent inhibition of enzyme activity.

SMILES	inhibition at 100 µM [%]	% Inhibition at 10^-4 M (aldose reductase enzyme activity) [%]
O=C(O)C1CCSc2cc(Cl)c(Cl)cc21 (stereo not drawn) [Example 4, 6,7-dichloro-3,4-dihydro-2H-1-benzothiopyran-4-carboxylic acid]	92	76
O=C(O)C1CCOc2ccc(F)cc21 (stereo not drawn) [Example 10, 6-fluoro-3,4-dihydro-2H-1-benzopyran-4-carboxylic acid]	71	
O=C(O)C1CCOc2ccc(Cl)cc21 (stereo not drawn) [Example 12, 6-chloro-3,4-dihydro-2H-1-benzopyran-4-carboxylic acid]	85	81
O=C(O)C1CCSc2ccc(Cl)cc21 (stereo not drawn) [Example 16, 6-chloro-3,4-dihydro-2H-1-benzothiopyran-4-carboxylic acid]	70	
O=C(O)CC1CCOc2ccc(Cl)cc21 (stereo not drawn) [Example 18, 6-chloro-3,4-dihydro-2H-1-benzopyran-4-acetic acid]	69	

Continued, values first:

inhibition at 100 µM [%]	% Inhibition at 10^-4 M (aldose reductase enzyme activity) [%]	SMILES
74	67	O=C(O)C1CCOc2c(Cl)cc(-c3ccccc3)cc21 (stereo not drawn) [Example 2, 6-phenyl-8-chloro-3,4-dihydro-2H-1-benzopyran-4-carboxylic acid]
87	89	Cc1cc(Cl)cc2c1OCCC2C(=O)O (stereo not drawn) [Example 6, 6-chloro-8-methyl-3,4-dihydro-2H-1-benzopyran-4-carboxylic acid]
82	89	O=C(O)C1CCOc2c(Cl)cc(Cl)cc21 (stereo not drawn) [Example 8, 6,8-dichloro-3,4-dihydro-2H-1-benzopyran-4-carboxylic acid]
88	90	O=C(O)C1CCOc2c1cc(Cl)c1ccccc21 (stereo not drawn) [Example 14, 6-chloro-3,4-dihydro-2H-naphtho[1,2-b]pyran-4-carboxylic acid]
